In the NIST ThermoML archive (doi:10.1021/je100757w):

Assay: xn = mol fraction of the nth substance listed
Settings: for surface tension liquid-gas: Ring tensiometer; for mass density: 101.3 kPa, Liquid

COCCOCCOCCOCCOC [2,5,8,11,14-pentaoxapentadecane] + O
Settings | mass density [kg/m3] | surface tension liquid-gas [mN/m]
298.15 K, x1 = 0.0016 | – | 50.16
298.15 K, x1 = 0.002 | – | 48.89
298.15 K, x1 = 0.0026 | – | 47.04
298.15 K, x1 = 0.0031 | – | 46.37
298.15 K, x1 = 0.0092 | – | 43.11
298.15 K, x1 = 0.0142 | 1011.13 | –
298.15 K, x1 = 0.0174 | – | 41.23
298.15 K, x1 = 0.0283 | – | 40.1
298.15 K, x1 = 0.057 | – | 39.54
298.15 K, x1 = 0.0746 | – | 38.88
298.15 K, x1 = 0.0747 | 1035.25 | –
298.15 K, x1 = 0.1026 | – | 38.65
298.15 K, x1 = 0.1452 | 1036.72 | –
298.15 K, x1 = 0.1497 | – | 37.66
298.15 K, x1 = 0.2264 | – | 36.29
298.15 K, x1 = 0.2309 | 1031.3 | –
298.15 K, x1 = 0.2862 | – | 35.79
298.15 K, x1 = 0.2974 | 1026.41 | –
298.15 K, x1 = 0.4065 | 1020.2 | –
298.15 K, x1 = 0.4268 | – | 35.09
298.15 K, x1 = 0.5085 | 1016.34 | –
298.15 K, x1 = 0.5414 | – | 34.92
298.15 K, x1 = 0.5863 | 1014.23 | –
298.15 K, x1 = 0.6144 | – | 34.46
298.15 K, x1 = 0.6788 | 1012.16 | –
298.15 K, x1 = 0.787 | – | 34.2
298.15 K, x1 = 0.8139 | 1009.47 | –
298.15 K, x1 = 0.8286 | – | 34.19
298.15 K, x1 = 0.854 | 1008.76 | –
298.15 K, x1 = 0.9196 | – | 33.91
298.15 K, x1 = 0.9569 | 1007.43 | –
298.15 K, x1 = 1 | 1007.26 | 33.74
308.15 K, x1 = 0.0014 | – | 51
308.15 K, x1 = 0.0023 | – | 46.99
308.15 K, x1 = 0.0032 | – | 45.45
308.15 K, x1 = 0.004 | – | 44.21
308.15 K, x1 = 0.009 | – | 42.87
308.15 K, x1 = 0.0142 | 1006.56 | –
308.15 K, x1 = 0.0175 | – | 39.9
308.15 K, x1 = 0.0275 | – | 39.08
308.15 K, x1 = 0.0539 | – | 38.34
308.15 K, x1 = 0.0715 | – | 37.36
308.15 K, x1 = 0.0747 | 1027.26 | –
308.15 K, x1 = 0.099 | – | 37.28
308.15 K, x1 = 0.1452 | 1027.67 | –
308.15 K, x1 = 0.1478 | – | 35.51
308.15 K, x1 = 0.2212 | – | 34.95
308.15 K, x1 = 0.2309 | 1022.01 | –
308.15 K, x1 = 0.2974 | 1017.12 | –
308.15 K, x1 = 0.3074 | – | 34.22
308.15 K, x1 = 0.4065 | 1010.92 | –
308.15 K, x1 = 0.4252 | – | 33.85
308.15 K, x1 = 0.5085 | 1007.06 | –
308.15 K, x1 = 0.5523 | – | 33.58
308.15 K, x1 = 0.5863 | 1004.92 | –
308.15 K, x1 = 0.6404 | – | 33.32
308.15 K, x1 = 0.6788 | 1002.83 | –
308.15 K, x1 = 0.7835 | – | 33.05
308.15 K, x1 = 0.8139 | 1000.17 | –
308.15 K, x1 = 0.814 | – | 32.88
308.15 K, x1 = 0.854 | 999.47 | –
308.15 K, x1 = 0.9479 | – | 32.64
308.15 K, x1 = 0.9569 | 998.16 | –
308.15 K, x1 = 1 | 997.98 | 32.45
318.15 K, x1 = 0.0013 | – | 58.46
318.15 K, x1 = 0.0019 | – | 54.2
318.15 K, x1 = 0.0024 | – | 51.29
318.15 K, x1 = 0.0033 | – | 47.59
318.15 K, x1 = 0.0098 | – | 42.27
318.15 K, x1 = 0.0142 | 1001.29 | –
318.15 K, x1 = 0.0187 | – | 40.41
318.15 K, x1 = 0.0314 | – | 40.39
318.15 K, x1 = 0.0584 | – | 38.25
318.15 K, x1 = 0.0747 | 1019.04 | –
318.15 K, x1 = 0.0748 | – | 37.24
318.15 K, x1 = 0.1022 | – | 36.5
318.15 K, x1 = 0.1452 | 1018.51 | –
318.15 K, x1 = 0.1482 | – | 35.37
318.15 K, x1 = 0.2219 | – | 33.81
318.15 K, x1 = 0.2309 | 1012.58 | –
318.15 K, x1 = 0.2974 | 1007.72 | –
318.15 K, x1 = 0.3152 | – | 33.3
318.15 K, x1 = 0.4065 | 1001.56 | –
318.15 K, x1 = 0.4328 | – | 32.94
318.15 K, x1 = 0.5085 | 997.73 | –
318.15 K, x1 = 0.5259 | – | 32.75
318.15 K, x1 = 0.5863 | 995.58 | –
318.15 K, x1 = 0.5974 | – | 32.47
318.15 K, x1 = 0.6788 | 993.48 | –
318.15 K, x1 = 0.7667 | – | 32.22
318.15 K, x1 = 0.8139 | 990.83 | –
318.15 K, x1 = 0.8249 | – | 32.05
318.15 K, x1 = 0.854 | 990.15 | –
318.15 K, x1 = 0.9324 | – | 31.94
318.15 K, x1 = 0.9569 | 988.89 | –
318.15 K, x1 = 1 | 988.72 | 31.71
